Source: PubChem BioAssay (NCI)
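Results reflect a 48-hour exposure of cells in 96-well plates to compound at five concentrations. GI50 marks 50% less growth. TGI marks complete inhibition of growth.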

How the values were obtained:
Assay in all cases: DTP human tumour cell line panel, 48 h
MDA-MB-435 = system: MDA-MB-435
NCI-H460 lung = system: NCI-H460 lung
SNB-75 CNS = system: SNB-75 CNS
SNB-19 CNS = system: SNB-19 CNS
OVCAR-8 ovarian = system: OVCAR-8 ovarian
T-47D breast = system: T-47D breast
TK-10 renal = system: TK-10 renal
KM12 colon = system: KM12 colon
HCT-116 colon = system: HCT-116 colon
HCT-15 colon = system: HCT-15 colon
RXF 393 renal = system: RXF 393 renal
786-0 renal = system: 786-0 renal
OVCAR-5 ovarian = system: OVCAR-5 ovarian
IGROV1 ovarian = system: IGROV1 ovarian
SK-MEL-2 melanoma = system: SK-MEL-2 melanoma
HT29 colon = system: HT29 colon
LOX IMVI melanoma = system: LOX IMVI melanoma
UACC-62 melanoma = system: UACC-62 melanoma
HL-60(TB) leukemia = system: HL-60(TB) leukemia
COLO 205 colon = system: COLO 205 colon
MCF7 breast = system: MCF7 breast
SK-OV-3 ovarian = system: SK-OV-3 ovarian
OVCAR-3 ovarian = system: OVCAR-3 ovarian
SF-295 CNS = system: SF-295 CNS
CAKI-1 renal = system: CAKI-1 renal
A549 NSCLC = system: A549 NSCLC
SN12C renal = system: SN12C renal
PC-3 prostate = system: PC-3 prostate
HS 578T breast = system: HS 578T breast
DU-145 prostate = system: DU-145 prostate
UACC-257 melanoma = system: UACC-257 melanoma
A498 renal = system: A498 renal
MALME-3M melanoma = system: MALME-3M melanoma
EKVX NSCLC = system: EKVX NSCLC
SF-539 CNS = system: SF-539 CNS
M14 melanoma = system: M14 melanoma
SK-MEL-5 melanoma = system: SK-MEL-5 melanoma
CCRF-CEM leukemia = system: CCRF-CEM leukemia
ACHN renal = system: ACHN renal
OVCAR-4 ovarian = system: OVCAR-4 ovarian
HOP-92 NSCLC = system: HOP-92 NSCLC
MOLT-4 leukemia = system: MOLT-4 leukemia
HCC-2998 colon = system: HCC-2998 colon
NCI-H23 lung = system: NCI-H23 lung
SF-268 CNS = system: SF-268 CNS
SW-620 colon = system: SW-620 colon
MDA-MB-231 breast = system: MDA-MB-231 breast
SK-MEL-28 melanoma = system: SK-MEL-28 melanoma
NCI/ADR-RES ovarian = system: NCI/ADR-RES ovarian
SR leukemia = system: SR leukemia
HOP-62 NSCLC = system: HOP-62 NSCLC
UO-31 renal = system: UO-31 renal
NCI-H522 lung = system: NCI-H522 lung
BT-549 breast = system: BT-549 breast
RPMI-8226 leukemia = system: RPMI-8226 leukemia
K-562 leukemia = system: K-562 leukemia
U251 CNS = system: U251 CNS
NCI-H226 lung = system: NCI-H226 lung

## O=C1c2ccccc2NC(=O)C2C1C(c1ccccc1)CC2(O)c1ccccc1 (stereo not given)
MDA-MB-435
  TGI: > 100 µM
NCI-H460 lung
  TGI: > 100 µM
SNB-75 CNS
  TGI: 0.0677 µM
SNB-19 CNS
  TGI: > 100 µM
OVCAR-8 ovarian
  TGI: > 100 µM
T-47D breast
  TGI: > 100 µM
TK-10 renal
  TGI: 99.7 µM
KM12 colon
  TGI: > 100 µM
HCT-116 colon
  TGI: 37.8 µM
HCT-15 colon
  TGI: > 100 µM
RXF 393 renal
  TGI: > 100 µM
786-0 renal
  TGI: > 100 µM
OVCAR-5 ovarian
  TGI: > 100 µM
IGROV1 ovarian
  TGI: > 100 µM
SK-MEL-2 melanoma
  TGI: > 100 µM
HT29 colon
  TGI: > 100 µM
LOX IMVI melanoma
  TGI: > 100 µM
UACC-62 melanoma
  TGI: > 100 µM
HL-60(TB) leukemia
  TGI: > 100 µM
COLO 205 colon
  TGI: 36.9 µM
MCF7 breast
  TGI: > 100 µM
SK-OV-3 ovarian
  TGI: > 100 µM
OVCAR-3 ovarian
  TGI: > 100 µM
SF-295 CNS
  TGI: > 100 µM
CAKI-1 renal
  TGI: > 100 µM
A549 NSCLC
  TGI: > 100 µM
SN12C renal
  TGI: > 100 µM
PC-3 prostate
  TGI: 74.3 µM
HS 578T breast
  TGI: 98.3 µM
DU-145 prostate
  TGI: > 100 µM
UACC-257 melanoma
  TGI: > 100 µM
A498 renal
  TGI: > 100 µM
MALME-3M melanoma
  TGI: > 100 µM
EKVX NSCLC
  TGI: > 100 µM
SF-539 CNS
  TGI: > 100 µM
M14 melanoma
  TGI: > 100 µM
SK-MEL-5 melanoma
  TGI: > 100 µM
CCRF-CEM leukemia
  TGI: > 100 µM
ACHN renal
  TGI: > 100 µM
OVCAR-4 ovarian
  TGI: > 100 µM
HOP-92 NSCLC
  TGI: 67 µM
MOLT-4 leukemia
  TGI: 71.5 µM
HCC-2998 colon
  TGI: > 100 µM
NCI-H23 lung
  TGI: > 100 µM
SF-268 CNS
  TGI: > 100 µM
SW-620 colon
  TGI: > 100 µM
MDA-MB-231 breast
  TGI: > 100 µM
SK-MEL-28 melanoma
  TGI: > 100 µM
NCI/ADR-RES ovarian
  TGI: > 100 µM
SR leukemia
  TGI: > 100 µM
HOP-62 NSCLC
  TGI: > 100 µM

## Cc1sc2nc(-c3ccc(Cl)c([N+](=O)[O-])c3)c(/C=N/N=C(N)N)n2c1C
MDA-MB-435
  TGI: 3.11 µM
OVCAR-8 ovarian
  TGI: 2.03 µM
T-47D breast
  TGI: 4.76 µM
TK-10 renal
  TGI: 3.2 µM
KM12 colon
  TGI: 1.87 µM
HCT-15 colon
  TGI: 2.65 µM
RXF 393 renal
  TGI: 3.13 µM
786-0 renal
  TGI: 1.92 µM
OVCAR-5 ovarian
  TGI: 2.93 µM
IGROV1 ovarian
  TGI: 2.44 µM
UO-31 renal
  TGI: 3.07 µM
HT29 colon
  TGI: 2.63 µM
LOX IMVI melanoma
  TGI: 2.44 µM
COLO 205 colon
  TGI: 1.31 µM
SK-OV-3 ovarian
  TGI: 3.13 µM
OVCAR-3 ovarian
  TGI: 3.5 µM
SF-295 CNS
  TGI: 3.4 µM
NCI-H522 lung
  TGI: 3.34 µM
BT-549 breast
  TGI: 3.07 µM
A498 renal
  TGI: 3.06 µM
MALME-3M melanoma
  TGI: 3.68 µM
EKVX NSCLC
  TGI: 3.14 µM
SF-539 CNS
  TGI: 2.99 µM
M14 melanoma
  TGI: 3.29 µM
ACHN renal
  TGI: 2.77 µM
HCC-2998 colon
  TGI: 2.64 µM
SK-MEL-28 melanoma
  TGI: 2.18 µM
NCI/ADR-RES ovarian
  TGI: 6.59 µM
HOP-62 NSCLC
  TGI: 1.7 µM

## CN(C)c1ccc(/C=C2\C[C@H]3[C@@H]4CCc5cc(OCCN6CCCC6)ccc5[C@H]4CC[C@]3(C)C2=O)cc1
SNB-19 CNS
  TGI: 4.09 µM
HCT-116 colon
  TGI: 2.45 µM
HCT-15 colon
  TGI: 2.66 µM
786-0 renal
  TGI: 2.6 µM
OVCAR-5 ovarian
  TGI: 8.62 µM
SK-MEL-2 melanoma
  TGI: 3.93 µM
HT29 colon
  TGI: 0.814 µM
UACC-62 melanoma
  TGI: 4.24 µM
COLO 205 colon
  TGI: 2.85 µM
SN12C renal
  TGI: 2.97 µM
BT-549 breast
  TGI: > 100 µM
UACC-257 melanoma
  TGI: 5.35 µM
EKVX NSCLC
  TGI: 6.32 µM
SK-MEL-5 melanoma
  TGI: 3.22 µM
ACHN renal
  TGI: 3.11 µM
NCI-H23 lung
  TGI: > 100 µM

## O=c1nc2n(-c3ccc(Cl)cc3)c3ccc([N+](=O)[O-])cc3cc-2c(=O)[nH]1
MDA-MB-435
  GI50: 15.8 µM
  TGI: 37.7 µM
NCI-H460 lung
  GI50: 23.1 µM
  TGI: > 100 µM
SNB-75 CNS
  GI50: > 100 µM
  TGI: > 100 µM
SNB-19 CNS
  GI50: 17.8 µM
  TGI: 83.3 µM
OVCAR-8 ovarian
  GI50: 33.2 µM
  TGI: > 100 µM
T-47D breast
  GI50: 18.3 µM
  TGI: 43.1 µM
TK-10 renal
  GI50: 25.7 µM
  TGI: 62.7 µM
KM12 colon
  GI50: 5.06 µM
  TGI: 20 µM
HCT-116 colon
  GI50: 16.1 µM
  TGI: 33.2 µM
RPMI-8226 leukemia
  GI50: 12.3 µM
  TGI: 47.7 µM
HCT-15 colon
  GI50: 8.84 µM
  TGI: > 100 µM
RXF 393 renal
  GI50: 18.8 µM
  TGI: > 100 µM
786-0 renal
  GI50: 17.9 µM
  TGI: 37.1 µM
OVCAR-5 ovarian
  GI50: 28.8 µM
  TGI: 73.8 µM
SK-MEL-2 melanoma
  GI50: 55.1 µM
  TGI: > 100 µM
UO-31 renal
  GI50: 20 µM
  TGI: 53.6 µM
HT29 colon
  GI50: 20.2 µM
  TGI: 43.1 µM
LOX IMVI melanoma
  GI50: 4.87 µM
  TGI: 21.7 µM
UACC-62 melanoma
  GI50: 11.8 µM
  TGI: 28.6 µM
K-562 leukemia
  GI50: 32.6 µM
  TGI: > 100 µM
HL-60(TB) leukemia
  GI50: 9.55 µM
  TGI: > 100 µM
U251 CNS
  GI50: 8.15 µM
  TGI: 88.7 µM
COLO 205 colon
  GI50: 13.2 µM
  TGI: 31.8 µM
SK-OV-3 ovarian
  GI50: 41.7 µM
  TGI: > 100 µM
OVCAR-3 ovarian
  GI50: 5.57 µM
  TGI: 21.6 µM
SF-295 CNS
  GI50: 19.8 µM
  TGI: 47.1 µM
CAKI-1 renal
  GI50: 21.5 µM
  TGI: 60.1 µM
A549 NSCLC
  GI50: 30.4 µM
  TGI: > 100 µM
NCI-H522 lung
  GI50: 22.2 µM
  TGI: 57.2 µM
SN12C renal
  GI50: 14.5 µM
  TGI: 44.5 µM
PC-3 prostate
  GI50: 23.5 µM
  TGI: 78.5 µM
DU-145 prostate
  GI50: 29.1 µM
  TGI: 79.5 µM
BT-549 breast
  GI50: 13.6 µM
  TGI: 46.2 µM
UACC-257 melanoma
  GI50: 23.4 µM
  TGI: 62.5 µM
A498 renal
  GI50: 33.2 µM
  TGI: > 100 µM
EKVX NSCLC
  GI50: 37.2 µM
  TGI: 82.5 µM
SF-539 CNS
  GI50: 22.5 µM
  TGI: 53.9 µM
M14 melanoma
  GI50: 20.2 µM
  TGI: 37.7 µM
SK-MEL-5 melanoma
  GI50: 18.6 µM
  TGI: 41.6 µM
CCRF-CEM leukemia
  GI50: 9.37 µM
  TGI: > 100 µM
NCI-H226 lung
  GI50: 21.1 µM
  TGI: 60.5 µM
ACHN renal
  GI50: 57.4 µM
  TGI: > 100 µM
OVCAR-4 ovarian
  GI50: 71.5 µM
  TGI: > 100 µM
MOLT-4 leukemia
  GI50: 13.4 µM
  TGI: > 100 µM
HCC-2998 colon
  GI50: 22.3 µM
  TGI: 54.3 µM
NCI-H23 lung
  GI50: 17.7 µM
  TGI: 34 µM
SF-268 CNS
  GI50: 16.5 µM
  TGI: 64.5 µM
SW-620 colon
  GI50: 6.11 µM
  TGI: > 100 µM
MDA-MB-231 breast
  GI50: 17.3 µM
  TGI: 44.5 µM
SK-MEL-28 melanoma
  GI50: 24.9 µM
  TGI: 61.6 µM
NCI/ADR-RES ovarian
  GI50: 49.6 µM
  TGI: > 100 µM
HOP-62 NSCLC
  GI50: 6.01 µM
  TGI: 22.8 µM
